Experimental data from patent US20220018855A1, “RGMa Fragment Based Diagnostic Assay” (ABBVIE DEUTSCHLAND GMBH & CO. KG, priority 2014, published 2022).
Entries after “also recorded” stand apart in the source; their conditions may differ.

Columns and labels:
[1] = test system: progressive multiple sclerosis patients; assay: Clinical evaluation (EDSS, maximum walking distance, walking speed) after repeated intrathecal TCA applications; type: in vivo, human; conditions: for clinical benefit / functional recovery: not immediately responding patients
Method: Subjects. 25 MS patients (age: 50±1.64 [mean±SEM, years] were studied. The average MS duration was 14.02±1.71 [years]. The subjects included 14 women and 11 men. The subjects included 13 secondary progressive [8 women, 5 men] and 12 primary progressive [6 women, 6 men]). […] Design. TCA application was followed by a mandatory stay in bed for at least six hours in order to support and ease the diffusion of TCA in the CSF and the spinal cord. Lumbar puncture was performed with an atraumatic Sprotte needle. The preexisting immune system modulating drug therapy remained stable. Spasticity reducing therapy was not changed. Expanded Disability Status Score (EDSS) ratings, maximum walking distance, and walking speed assessments were performed at baseline and on each day after a 40 mg Triamcinolone acetonide (TCA) administration, dissolved in 10 ml saline, up to the fourth TCA application. Statistics. ANCOVA with repeated measures design were employed for this exploratory analysis of this pilot trial. Covariates were MS duration, MS types, sex and age as covariates. The post hoc analysis was done with the Tukey's multiple comparisons test against baseline. The statistical analysis was performed with GraphPad Prism 5 Software. […] Clinical evaluation was performed at baseline and on each day after a triamcinolone administration in 25 progressive multiple sclerosis patients. Before the TCA was administered to a patient, 1-2 ml aliquots of CSF were withdrawn. RGMa concentrations were determined before each triamcinolone application by western blot analysis with quantification. Dependent on the disease activity, the patients usually received 4-6 TCA applications.

[2] = test system: progressive multiple sclerosis patients; assay: Side effects during TCA therapy; type: in vivo, human; conditions: all participants (25 MS patients)
Method: Design. TCA application was followed by a mandatory stay in bed for at least six hours in order to support and ease the diffusion of TCA in the CSF and the spinal cord. Lumbar puncture was performed with an atraumatic Sprotte needle. The preexisting immune system modulating drug therapy remained stable. Spasticity reducing therapy was not changed. Expanded Disability Status Score (EDSS) ratings, maximum walking distance, and walking speed assessments were performed at baseline and on each day after a 40 mg Triamcinolone acetonide (TCA) administration, dissolved in 10 ml saline, up to the fourth TCA application. […] Clinical evaluation was performed at baseline and on each day after a triamcinolone administration in 25 progressive multiple sclerosis patients. Before the TCA was administered to a patient, 1-2 ml aliquots of CSF were withdrawn. RGMa concentrations were determined before each triamcinolone application by western blot analysis with quantification. Dependent on the disease activity, the patients usually received 4-6 TCA applications.

MS patients = conditions: cited from earlier work
RGMa = RGMa levels in cerebrospinal fluid by Western blot with densitometric quantification; type: in vivo, human
[3] = treated MS patients, numerous TCA studies

In the case of `CC1(C)O[C@@H]2C[C@H]3[C@@H]4CCC5=CC(=O)C=C[C@]5(C)[C@@]4(F)[C@@H](O)C[C@]3(C)[C@]2(C(=O)CO)O1` [TCA, triamcinolone acetonide], the walking speed ([1]; 8 not immediately responding patients, F=0.021, ns, FIG. 4C) is reported as “no significant change; also recorded: no improved”, the EDSS scores ([1]; 8 not immediately responding patients, F=1, ns, FIG. 4A) is reported as “no significant change; also recorded: no improved” and the maximum walking distances ([1]; 8 not immediately responding patients, F=1.52, ns, FIG. 4B) is reported as “no significant change; also recorded: no improved”. For the same molecule, the walking speed ([1]; 17 immediate responders (3 wheel chair bound excluded), F=3.42, p<0.01, FIG. 3C) was “improved”, the walking speed ([1]; 17 immediate responders (3 wheel chair bound excluded), F=3.42, p<0.01, FIG. 3C, listed as Triamcinolone Acetonide) was “went up” and the walking speed ([1]; 17 immediate responders (3 wheel chair bound excluded), F=3.42, p<0.01, FIG. 3C, listed as triamcinolone) was “ameliorated”. The maximum walking distances ([1]; 17 immediate responders (3 wheel chair bound excluded), F=3.64, p=0.01, FIG. 3B) was “improved”, the maximum walking distances ([1]; 17 immediate responders (3 wheel chair bound excluded), F=3.64, p=0.01, FIG. 3B, listed as Triamcinolone Acetonide) was “increased” and the maximum walking distances ([1]; 17 immediate responders (3 wheel chair bound excluded), F=3.64, p=0.01, FIG. 3B, listed as triamcinolone) was “ameliorated”. The EDSS scores ([1]; 17 immediate responders, 40 mg TCA intrathecal, repeated, F=8.55, p<0.009, FIG. 3A) was “improved”, the EDSS scores ([1]; 17 immediate responders, 40 mg TCA intrathecal, repeated, F=8.55, p<0.009, FIG. 3A, listed as Triamcinolone Acetonide) was “went down” and the EDSS scores ([1]; 17 immediate responders, 40 mg TCA intrathecal, repeated, F=8.55, p<0.009, FIG. 3A, listed as triamcinolone) was “improved”. For the same molecule, the “patients reporting a delayed improvement within three weeks after the TCA applications” value ([1]; among the 8 not immediately responding patients) was 6 patients, the “clinical benefit / functional recovery” value [1] was “no functional recovery” and the “clinical benefit / functional recovery” value ([1]; listed as triamcinolone) was “no prompt clinical benefit”. For the same molecule, the “patients improved following treatment” value ([1]; of 25 progressive MS patients) was 17 patients, the “patients who did not immediately respond during the observation period” value ([1]; of 25 progressive MS patients) was 8 patients and the serious side effects [2] was “no serious side effects”. The “CSF synthesis of free radicals” value (MS patients; patients with a distinct immediate enhancement of upper and lower limb function) was “Reduced”, the “EDSS (Expanded Disability Status Score)” value (MS patients; [3]) was “decreased” and the walking distance (MS patients; [3]) was “increased”. For the same molecule, the walking speed (MS patients; [3]) was “decreased”, the “RGMa concentrations in CSF” value (RGMa; not immediately responding patients) was “no decrease” and the “RGMa 40 kDa form level in CSF” value (RGMa; not immediately responding patients, F=0.84, ns, FIG. 7A) was “No significant changes”. The “RGMa 30 kDa form level in CSF” value (RGMa; not immediately responding patients, F=2.98, ns, FIG. 7B) was “No significant changes”, the “RGMa levels in CSF (all investigated fragments)” value (shortened to “RGMa levels in CSF”) (RGMa; responders) was “decreased” and the “RGMa 40 kDa form level in CSF” value (RGMa; responders, F=9.12, p<0.0001, FIG. 5A) was “decline”. For the same molecule, the “RGMa 30 kDa form level in CSF” value (RGMa; responders, less pronounced than 40 kDa, F=3.82, p<0.05, FIG. 5B) was “decline”, the “RGMa levels in CSF” value (RGMa; responders, listed as Triamcinolone Acetonide) was “reduction” and the “RGMa levels in CSF” value (RGMa; responders, listed as triamcinolone) was “declined”.
